Laboratory results from patent US11925649B2, “Treatments for diabetic neuropathy” (University of Manitoba, priority 2010, dated 2024).

Experiments:
[1] = tested on: AMP-activated protein kinase (AMPK); test: Phosphorylation of AMPK in cultured sensory neurons (Western blot); format: cell-based, rat; settings: 10 μM
Protocol: Samples were taken immediately (time 0) and then after 15 min, 30 min, 60 min, and 6 hr of incubation. Quantitative Western blotting was performed as following the procedure taught in Example 5. DRG homogenates of 5-10 μg of protein were resolved on a 10% SDS-PAGE gel and electroblotted onto nitrocellulose membrane. Blots were then blocked in 5% nonfat milk containing 0.05% Tween-20, rinsed in PBS (pH 7.4) and incubated with the following antibodies: (i) polyclonal anti-phospho AMPK (on Thr-172, 1:1000, Cell Signaling Technology, Danvers, MA, US), and (ii) extracellular signal-regulated kinase (T-ERK; 1:2000, Covance, Princeton, NJ, US). The blots were rinsed, incubated in Western blotting Luminol Reagent (Santa Cruz Biotechnology Inc., Santa Cruz, CA, US) and imaged using a BioRad Fluor-S image analyzer (BioRad, Hercules, CA, US).

[2] = tested on: M1R relative to M(2)-M(5); settings: cited from earlier work
[3] = in vivo in mice; cited from earlier work
M1R = settings: cited from earlier work
[4] = tested on: STZ-induced diabetic Swiss Webster mice; test: Reversal of thermal hypoalgesia and IENF loss in STZ-induced diabetic mice, i.p.; format: in vivo, mouse; settings: 10 mg/kg i.p. daily for 4 weeks from week 8
Protocol: Swiss Webster (outbred) mice were made diabetic with 2 injections of 90 mg/kg STZ on consecutive days. […] The mice were maintained for 8 weeks after STZ injections. Diabetic neuropathy was well-established in the mice that received STZ injections as evidenced by signs of neuropathy (thermal hypoalgesia). A cohort then received 10 mg/kg VU255035 by i.p. injection daily for 4 weeks.

[5] = tested on: sensory neurons from DRG of Sprague Dawley rat; test: Total neurite outgrowth at low concentrations of M1R antagonists (immunostaining); format: cell-based; settings: 24 hr culture
Protocol: Sensory neurons from cervical, thoracic and lumbar DRG of an adult 3-4 month old male Sprague Dawley rat were isolated and dissociated using the method described in Example 1, and then were cultured for 24 h in serum-free and insulin-free F12 medium in the presence of modified N2 additives. […] Neurite outgrowth was then assessed after a culture period of 24 hr.
Total neurite lengths (i.e., the sum of the length of all neurites produced by an individual neuron) were assessed using an immunostaining method. […] Four images were captured per well and the replicate well frequency was set to n=6. The neuronal marker β-tubulin III (Sigma-Aldrich Canada Ltd.) was applied to formalin fixed cells. The marker was tagged with the fluorescent conjugate Alexa Fluor 488 (Invitrogen Canada Ltd.). Fluorescent images were collected using an Olympus IX71 inverted microscope with a 20×/0.45 PH1 [sequence] objective that was suitable for resolving images on plastic surfaces. […] Captured image fluorescence was thereafter converted to a grayscale 8-bit image to quantify total pixel volume. […] Total pixel volume of the neuron specific cell bodies and neurites were quantified. […] The net pixel volume was normalized against the number of neuronal cells per quantified field.

[6] = tested on: sensory neurons from DRG of non-diabetic Sprague Dawley rat; test: Neurite outgrowth from excised neurons from a normal rat; format: cell-based; settings: 24 hr; for neurite outgrowth rates: higher dosages 0.1 to 10.0 μM; for neurite outgrowth: lowest dosage of 0.01 μM
Excerpt: Sensory neurons from cervical, thoracic and lumbar DRG of a 3-4 month old adult male ZDF diabetic rat (model of type 2 diabetes) were isolated and dissociated using a method based on the teachings of Fernyhough et al. (1993, Brain Res. 607:117-124), Gardiner et al. (2005, Mol. Cell Neurosci. 28:229-240), and Huang et al. (2003, Diabetes 52:2129-2136). Briefly, DRG were removed from all spinal levels, their roots trimmed, and then the cells were chemically dissociated in 0.125% collagenase (Worthington Biochemical Corp., Lakewood, NJ, USA) in F12 nutrient medium (Invitrogen Canada Inc., Burlington, ON, Canada) for 1.5 h at 37° C. The ganglia were then mechanically dissociated by treatment with 0.05% trypsin (Worthington Biochemical Corp.) in F12 nutrient medium, followed by trituration with a glass pipette. […] The neuron cells were plated onto poly-L-ornithine-laminin-coated NUNC 48-well or 96-well plastic dishes with optically clear glass bottoms in serum-free and insulin-free F12 medium in the presence of modified N2 additives (containing no insulin) at 37° C. in a 95% air/5% CO2 humidified incubator. All cultures were exposed to the following additional conditions: 10 mM D-glucose, 0.1 nM insulin, 0.3 ng/ml NGF, 1 ng/ml NT-3 and 5 ng/ml GDNF (all obtained from Sigma-Aldrich Canada Ltd.). […] Neurite outgrowth was then assessed at 24 hr as previously described by Fernyhough et al. (1993) and Gardiner et al. (2005).
Sensory neurons from cervical, thoracic and lumbar DRG of a 3-4 month old non-diabetic adult male Sprague Dawley rat were isolated and dissociated using the method described in Example 1. The excised and dissociated neuron cells were plated onto poly-L-ornithine-laminin-coated NUNC 48-well or 96-well plastic dishes with optically clear glass bottoms in serum-free and insulin-free F12 medium in the presence of modified N2 additives (containing no insulin) at 37° C. in a 95% air/5% CO2 humidified incubator. All cultures were exposed to the following additional conditions: 10 mM D-glucose, 0.1 nM insulin, 0.3 ng/ml NGF, 1 ng/ml NT-3 and 5 ng/ml GDNF (all obtained from Sigma-Aldrich Canada Ltd.). […] Neurite outgrowth was then assessed at 24 hr.

Row | Structure (SMILES) | total AMPK levels [1] | phosphorylation of AMPK (P-AMPK) relative to total ERK ([1]; 30-60 min) | phosphorylation of AMPK (P-AMPK) relative to total ERK ([1]; by 15 min) | phosphorylation of AMPK (P-AMPK) relative to total ERK ([1]; by 6 hr) | selectivity to M1R relative to M2, M3, M4 and M5 receptors [2] [times] | selectivity for M1R relative to M(2)-M(5) ([2]; equilibrium radioligand binding and functional studies) | blood brain barrier penetration [3] | mode of antagonism (M1R) | loss of IENF [4] | loss of SNP [4] | thermal hypoalgesia [4] | concentration that significantly increased total neurite outgrowth [5] [µM] | neurite outgrowth rates [6] | neurite outgrowth [6]
1 | O=C(CCNS(=O)(=O)c1cccc2nsnc12)N1CCN(c2ccncc2)CC1 [VU255035, N-(3-oxo-3-(4-(pyridine-4-yl)piperazin-1-yl)propyl)-benzo[c][1,2,5]thiadiazole-4 sulfonamide] | not affected | maintained phosphorylation | significantly raised phosphorylation of AMPK | return to baseline | 75 | greater than 75 fold | excellent blood brain barrier penetration | competitive orthosteric antagonist of M1R | significantly reversed loss | significantly reversed loss | significant reversal back to control levels of thermal sensitivity | ≥ 0.03 |  | 
2 | CN1[C@@H]2CC[C@H]1C[C@@H](OC(=O)C(CO)c1ccccc1)C2 (stereo partly shown) [atropine] |  |  |  |  |  |  |  |  |  |  |  |  | did not further increase neurite outgrowth rates | more than tripled
3 | Cc1scc2c1N(C(=O)CN1CCN(C)CC1)c1ccccc1NC2=O [telenzepine, Telenzepine] |  |  |  |  |  |  |  |  |  |  |  |  | tripled | more than doubled
